# Reference: patent publication US20230167073A1 (Teijin Pharma Limited, priority 2020, published 2023)
# Molecular target: T1, Human TRPC6 (Homo sapiens, UniProt Q9Y210)
# T1 construct: expressed in transfected cells
# T1 sequence (Q9Y210 1-931): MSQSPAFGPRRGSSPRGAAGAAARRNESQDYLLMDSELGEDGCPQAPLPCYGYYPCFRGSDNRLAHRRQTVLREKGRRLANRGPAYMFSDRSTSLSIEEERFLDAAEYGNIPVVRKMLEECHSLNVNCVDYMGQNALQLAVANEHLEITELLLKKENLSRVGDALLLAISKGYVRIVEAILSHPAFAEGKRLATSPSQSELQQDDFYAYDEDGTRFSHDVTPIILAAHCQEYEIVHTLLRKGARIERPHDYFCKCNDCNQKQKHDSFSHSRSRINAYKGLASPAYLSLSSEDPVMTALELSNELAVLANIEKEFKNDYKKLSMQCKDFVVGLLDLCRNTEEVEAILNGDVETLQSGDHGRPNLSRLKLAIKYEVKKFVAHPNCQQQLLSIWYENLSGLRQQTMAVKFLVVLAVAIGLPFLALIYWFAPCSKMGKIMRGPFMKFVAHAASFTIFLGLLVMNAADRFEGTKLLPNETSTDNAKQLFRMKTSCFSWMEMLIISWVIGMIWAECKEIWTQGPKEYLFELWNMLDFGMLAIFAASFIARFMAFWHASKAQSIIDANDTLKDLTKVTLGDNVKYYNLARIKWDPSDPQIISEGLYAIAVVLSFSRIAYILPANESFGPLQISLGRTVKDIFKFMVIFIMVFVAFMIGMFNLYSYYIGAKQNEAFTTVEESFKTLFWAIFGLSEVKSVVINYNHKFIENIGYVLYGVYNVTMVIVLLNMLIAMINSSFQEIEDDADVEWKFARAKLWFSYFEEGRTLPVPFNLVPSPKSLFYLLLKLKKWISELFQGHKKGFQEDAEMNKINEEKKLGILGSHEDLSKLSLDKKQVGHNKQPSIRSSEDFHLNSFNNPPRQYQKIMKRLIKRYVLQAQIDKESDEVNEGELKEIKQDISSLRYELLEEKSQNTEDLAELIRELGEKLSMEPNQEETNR
# Experiment: Evaluation of TRPC6 channel inhibitory activity (1), FLIPR Calcium 5 Assay Kit, OAG stimulation (Compound Nos. 1-1293)
# Assay type: cell-based
# Details: Human TRPC6 stably-expressing cells, OAG 30 μM, FLIPR Calcium 5 Assay Kit; read-out: Inhibitory activity (pIC50 class) (converted)
# Method in brief: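 TRPC6 (human) stable cells, 24 h culture; Ca5 no-wash dye + probenecid 30 min; cpd 20 min; OAG 30 μM final; ΔF (pre-cpd min to post-OAG max); 0%/100% = no cpd / no cpd + no OAG; 4PL → pIC50, binned +/++/+++.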
row,SMILES,IC50 [µM]
1,"Cn1nc(C2CC2)cc1Oc1cc(C#N)ccc1-c1cc(C(=O)N2CCC[C@H](N)C2)ccn1 [compound 555, 4-[4-[(3S)-3-aminopiperidine-1-carbonyl]pyridin-2-yl]-3-(5-cyclopropyl-2-methylpyrazol-3-yl)oxybenzonitrile]",> 1
2,"Cn1nc(C2CC2)cc1Oc1cc(C#N)ccc1-c1cc(OCCN)ccn1 [compound 556, 4-[4-(2-aminoethoxy)pyridin-2-yl]-3-(5-cyclopropyl-2-methylpyrazol-3-yl)oxybenzonitrile]",0.01 to 1
3,"Cn1nc(Oc2cc(C#N)ccc2-c2ccc(CCN)cn2)cc1N1CCOCC1 [compound 557, 4-[5-(2-aminoethyl)pyridin-2-yl]-3-(1-methyl-5-morpholin-4-ylpyrazol-3-yl)oxybenzonitrile]",0.01 to 1
4,"Cc1nc(Oc2cc(C#N)ccc2-c2ccc([C@H](O)CN)cn2)cc(N2CCO[C@@H](C)C2)n1 [compound 558, 4-[5-[(1S)-2-amino-1-hydroxyethyl]pyridin-2-yl]-3-[2-methyl-6-[(2S)-2-methylmorpholin-4-yl]pyrimidin-4-yl]oxybenzonitrile]",0.01 to 1
5,"Cc1nc(Oc2cc(C#N)ccc2-c2ncc([C@H](O)CN)cn2)cc(N2CCO[C@@H](C)C2)n1 [compound 559, 4-[5-[(1S)-2-amino-1-hydroxyethyl]pyrimidin-2-yl]-3-[2-methyl-6-[(2S)-2-methylmorpholin-4-yl]pyrimidin-4-yl]oxybenzonitrile]",0.01 to 1
6,"Cc1nc(Oc2cc(C#N)ccc2-c2ccc([C@H](O)CN)cn2)cc(N2CCOC(C)(C)C2)n1 [compound 560, 4-[5-[(1S)-2-amino-1-hydroxyethyl]pyridin-2-yl]-3-[6-(2,2-dimethylmorpholin-4-yl)-2-methylpyrimidin-4-yl]oxybenzonitrile]",0.01 to 1
7,"Cc1nc(Oc2cc(C#N)ccc2-c2ncc([C@H](O)CN)cn2)cc(N2CCOC(C)(C)C2)n1 [compound 561, 4-[5-[(1S)-2-amino-1-hydroxyethyl]pyrimidin-2-yl]-3-[6-(2,2-dimethylmorpholin-4-yl)-2-methylpyrimidin-4-yl]oxybenzonitrile]",0.01 to 1
8,"Cc1cc(Oc2cc(C#N)ccc2-c2ccc(CC3(N)COC3)cn2)cc(N2CCOCC2)n1 [compound 562, 4-[5-[(3-aminooxetan-3-yl)methyl]pyridin-2-yl]-3-(2-methyl-6-morpholin-4-ylpyridin-4-yl)oxybenzonitrile]",< 0.01
9,"Cc1cc(Oc2cc(C#N)ccc2-c2ncc(OC3CNC3)cn2)cc(N2CCOCC2)n1 [compound 563, 4-[5-(azetidin-3-yloxy)pyrimidin-2-yl]-3-(2-methyl-6-morpholin-4 ylpyridin-4-yl)oxybenzonitrile]",> 1
10,"Cc1cc(Oc2cc(C#N)ccc2-c2ccc(OC3CNC3)cn2)cc(N2CCOCC2)n1 [compound 564, 4-[5-(azetidin-3-yloxy)pyridin-2-yl]-3-(2-methyl-6-morpholin-4-ylpyridin-4-yl)oxybenzonitrile]",0.01 to 1
11,"Cc1cc(Oc2cc(C#N)ccc2-c2ccc(N3CC[C@H](N)C3=O)cn2)cc(N2CCOCC2)n1 [compound 565, 4-[5-[(3S)-3-amino-2-oxopyrrolidin-1-yl]pyridin-2-yl]-3-(2-methyl-6-morpholin-4-ylpyridin-4-yl)oxybenzonitrile]",> 1
12,"Cc1cc(Oc2cc(C#N)ccc2-c2ccn(CCN)c(=O)c2)cc(N2CCOCC2)n1 [compound 566, 4-[1-(2-aminoethyl)-2-oxopyridin-4-yl]-3-(2-methyl-6-morpholin-4-ylpyridin-4-yl)oxybenzonitrile]",0.01 to 1
13,"Cc1cc(Oc2cc(C#N)ccc2-c2ccnc(OCCN)c2)cc(N2CCOCC2)n1 [compound 567, 4-[2-(2-aminoethoxy)pyridin-4-yl]-3-(2-methyl-6-morpholin-4-ylpyridin-4-yl)oxybenzonitrile]",0.01 to 1
14,"Cc1cc(Oc2cc(C#N)ccc2-c2ccc(N3CC(N)CC3=O)cn2)cc(N2CCOCC2)n1 (stereo not drawn) [compound 568, 4-[5-(4-amino-2-oxopyrrolidin-1-yl)pyridin-2-yl]-3-(2-methyl-6-morpholin-4-ylpyridin-4-yl)oxybenzonitrile]",> 1
15,"Cc1cc(Oc2cc(C#N)ccc2-c2ccc(N3CC[C@@H](N)C3=O)cn2)cc(N2CCOCC2)n1 [compound 569, 4-[5-[(3R)-3-amino-2-oxopyrrolidin-1-yl]pyridin-2-yl]-3-(2-methyl-6-morpholin-4-ylpyridin-4-yl)oxybenzonitrile]",> 1
16,"Cn1nc(C2CC2)cc1Oc1cc(C#N)ccc1-c1cccn2c(CCN)nnc12 [compound 570, 4-[3-(2-aminoethyl)-[1,2,4]triazolo[4,3-a]pyridin-8-yl]-3-(5-cyclopropyl-2-methylpyrazol-3-yl)oxybenzonitrile]",0.01 to 1
17,"Cn1nc(C2CC2)cc1Oc1cc(C#N)ccc1-c1cccn2c(C3CNC3)nnc12 [compound 571, 4-[3-(azetidin-3-yl)-[1,2,4]triazolo[4,3-a]pyridin-8-yl]-3-(5-cyclopropyl-2-methylpyrazol-3-yl)oxybenzonitrile]",> 1
18,"Cc1cc(Oc2cc(C#N)ccc2-c2ncc(CN)cn2)cc(-c2ccccn2)n1 [compound 572, 4-[5-(aminomethyl)pyrimidin-2-yl]-3-(2-methyl-6-pyridin-2-ylpyridin-4-yl)oxybenzonitrile]",0.01 to 1
19,"Cn1nc(C2CC2)cc1Oc1cc(C#N)ccc1-c1cccn(CCN)c1=O [compound 573, 4-[1-(2-aminoethyl)-2-oxopyridin-3-yl]-3-(5-cyclopropyl-2-methylpyrazol-3-yl)oxybenzonitrile]",0.01 to 1
20,"Cn1nc(-c2nccs2)cc1Oc1cc(C#N)ccc1-c1ncc([C@H](O)CN)cn1 [compound 574, 4-[5-[(1S)-2-amino-1-hydroxyethyl]pyrimidin-2-yl]-3-[2-methyl-5-(1,3-thiazol-2-yl)pyrazol-3-yl]oxybenzonitrile]",0.01 to 1
21,"CC(C)Nc1cc(Oc2cc(C#N)ccc2-c2ccc(CCN)cn2)n(C)n1 [compound 575, 4-[5-(2-aminoethyl)pyridin-2-yl]-3-[2-methyl-5-(propan-2-ylamino)pyrazol-3-yl]oxybenzonitrile]",< 0.01
22,"Cn1nc(N)cc1Oc1cc(C#N)ccc1-c1ccc([C@H](O)CN)cn1 [compound 576, 4-[5-[(1S)-2-amino-1-hydroxyethyl]pyridin-2-yl]-3-(5-amino-2-methylpyrazol-3-yl)oxybenzonitrile]",> 1
23,"Cn1nc(N)cc1Oc1cc(C#N)ccc1-c1ccc(CCN)cn1 [compound 577, 4-[5-(2-aminoethyl)pyridin-2-yl]-3-(5-amino-2-methylpyrazol-3-yl)oxybenzonitrile]",0.01 to 1
24,"Cc1cc(Oc2cc(C#N)ccc2-c2ccc(CCCN)cc2)cc(N2CCOCC2)n1 [compound 578, 4-[4-(3-aminopropyl)phenyl]-3-(2-methyl-6-morpholin-4-ylpyridin-4-yl)oxybenzonitrile]",0.01 to 1
25,"Cn1nc(-c2ccccc2)cc1Oc1cc(C#N)ccc1-c1ccc(CCCN)cc1 [compound 579, 4-[4-(3-aminopropyl)phenyl]-3-(2-methyl-5-phenylpyrazol-3-yl)oxybenzonitrile]",0.01 to 1
26,"Cc1cc(Oc2cc(C#N)ccc2-c2ccc([C@H](O)CN)cn2)cc(C2CCOCC2)n1 [compound 580, 4-[5-[(1S)-2-amino-1-hydroxyethyl]pyridin-2-yl]-3-[2-methyl-6-(oxan-4-yl)pyridin-4-yl]oxybenzonitrile]",0.01 to 1
27,"Cn1nc(C2CC2)cc1Oc1cc(C#N)ccc1-c1nnc(CN)s1 [compound 582, 4-[5-(aminomethyl)-1,3,4-thiadiazol-2-yl]-3-(5-cyclopropyl-2-methylpyrazol-3-yl)oxybenzonitrile]",> 1
28,"Cn1nc(-c2ccccc2)cc1Oc1cc(C#N)ccc1-c1nnc(CN)s1 [compound 583, 4-[5-(aminomethyl)-1,3,4-thiadiazol-2-yl]-3-(2-methyl-5-phenylpyrazol-3-yl)oxybenzonitrile]",> 1
29,"Cn1nc(C2CC2)cc1Oc1cc(C#N)ccc1-c1ncc(CN)o1 [compound 584, 4-[5-(aminomethyl)-1,3-oxazol-2-yl]-3-(5-cyclopropyl-2-methylpyrazol-3-yl)oxybenzonitrile]",> 1
30,"Cn1nc(C2CC2)cc1Oc1cc(C#N)ccc1-c1cc(OCCCN)ccn1 [compound 585, 4-[4-(3-aminopropoxy)pyridin-2-yl]-3-(5-cyclopropyl-2-methylpyrazol-3-yl)oxybenzonitrile]",> 1
